Measurements published in patent publication US12180509B2, “Methods for reprograming non-pluripotent cells into pluripotent stem cells” (Beihao Stem Cell and Regenerative Medicine Research …, priority 2015, dated 2024).

What was measured:
[1] = tested on: XEN-like cells; test: Transition of XEN-like colonies to CiPSCs (stages 2 and 3); type: cell-based, mouse; settings: screen of 88 small molecules in the presence of VC6TFA plus DZNep, stage 2 of 12 days
Method: MEFs, MNFs or MAFs were plated at 300,000 cells per 100 mm dish, or 50,000 cells per well on a 6-well plate. The next day (day 0), the culture was changed into stage 1 medium supplemented with small-molecule cocktail VC6TFAE (0.5 mM VPA, […] CHIR99021, 10 μM 616452, 5 μM Tranylcypromine, 50 µM FSK, 0.05 μM AM580 and 5 μM EPZ004777). […] The cells were harvested and then re-plated at 100,000 cells per well of a 6-well plate (1:15). During days 12-16, the cells were cultured in stage 1 medium supplemented with a modified small-molecule cocktail VC6TFA (0.5 mM VPA, 10 μM CHIR99021, 10 μM 616452, 5 μM Tranylcypromine, 10 μM FSK, 0.05 μM AM580). On day 16, XEN-like epithelial colonies were formed and the culture was changed into stage 2 medium supplemented with small-molecule cocktail VC6TFAZDS (0.5 mM VPA, 10 μM CHIR99021, 10 μM 616452, 5 μM Tranylcypromine, 10 μM FSK, 0.05 μM AM580, 0.05 μM DZNep, 0.5 μM 5-aza-dC and 5 μM SGC0946). On day 28, the culture was transferred into stage 3 medium. […] During CiPSC induction, the medium and small molecules were changed every 4 days.
Studies were next conducted to identify small molecules that facilitate the transition of XEN-like colonies to CiPSCs during stages 2 and 3. Small-molecule screenings were performed in the presence of small molecule cocktail VC6TFA plus DZNep (Z) for 12 days with successful enhanced generation of CiPSC colonies. […]

[2] = tested on: pluripotency-related genes and XEN marker genes; test: Real-time PCR of pluripotency, XEN and MET genes during chemical reprogramming; type: cell-based, mouse; settings: stage 2, XEN-like cells
Method: Total RNA from an entire well of cultured cells was isolated using the RNeasy Plus MiniKit (QIAGEN). For a single colony, RNA was isolated using the RNeasy Micro Kit (QIAGEN). RNA was converted to cDNA using TransScript First-Strand cDNA Synthesis SuperMix (TransGen Biotech). PCR was carried out using Power SYBRR Green PCR Master Mix (Applied Biosystems) and performed on an ABI Prism 7300 Sequence Detection System. The data were analyzed using the delta-delta Ct method.

With `Nc1ncn([C@H]2C[C@H](O)[C@@H](CO)O2)c(=O)n1` [5-aza-dC] the “CiPSC colony formation in stage 3” value [1] was “CiPSC colonies formed in stage 3 only when the cell culture medium was supplemented with 5-aza-dC” and the “expression of pluripotency genes (Oct4, Dppa family genes)” value [2] was “promote the expression of pluripotency genes”.
